According to US20030083374A1, “NAALADase inhibitors useful as pharmaceutical compounds and compositions” (priority 1998, published 2003):

Experiments:
[1] = system: cortical cell cultures; test: in vitro assay of NAALADase inhibitors on ischemia in cortical cell cultures; format: cell-based; settings: concentration required to cause a 50% reduction in glutamate toxicity following an ischemic insult (potassium cyanide and 2-deoxyglucose)
Source text: Some results are set forth in U.S. Pat. Nos. 5,672,592, 5,795,877, 5,863,536, 5,880,112 and 5,902,817, allowed U.S. patent application Ser. Nos. 08/825,997, 08/833,628, 08/842,360 and 08/899,319 for which the issue fees have been paid, the entire contents of which patents and applications are herein incorporated by reference. Other results are provided below in TABLE III.

[2] = Example 14: each of the Examples and in vitro and in vivo assays described above; settings: each of their respective assays and Examples
[3] = system: rat MCAO model of stroke; test: in vivo assay on brain injury following MCAO; set-up: species or system Sprague-Dawley rats; settings: for % Protect: TABLE IV(b), 120 minutes post MCAO
Procedure: The control group received Hepes buffered saline.
Four drug treated groups received Compound 1. For each rat, the treatment was initiated at 60 minutes post middle cerebral artery occlusion (MCAO) by an IV bolus injection which was immediately followed by IV infusion for 4 hours at rate of 0.5 ml/hr. Group 1 (n=9) received a dose of 100 mg/kg IV bolus followed by 20 mg/kg/hr IV infusion for 4 hours. Group 2 (n=11) received a dose of 30 mg/kg IV bolus followed by 6 mg/kg/hr IV infusion for 4 hours. Group 3 (n=9) received a dose of 10 mg/kg IV bolus followed by 2 mg/kg/hr IV infusion for 4 hours. Group 3 rats were also treated at 120 minutes, 180 minutes and 360 minutes post-occlusion. Group 4 (n=8) received a dose of 3 mg/kg IV bolus followed by […] IV infusion for 4 hours.
Two additional drug treated groups received 2-(3-sulfanylpropyl)pentanedioic acid. For each rat, the treatment was initiated at 120 minutes post middle cerebral artery occlusion (MCAO) by an IV bolus injection which was immediately followed by IV infusion for 4 hours at rate of 0.5 ml/hr. Group 5 received a dose of 30 mg/kg IV bolus followed by 6 mg/kg/hr IV infusion for 4 hours. Group 6 received a dose of 10 mg/kg IV bolus followed by 2 mg/kg/hr IV infusion.
Twenty two hours following the reperfusion, the rats were euthanized and their brains were removed. Seven coronal sections (2 mm thick) were taken and stained with 1% solution of 2,3,5-triphenyl-tetraxolium chloride (TTC) for 20 minutes and then fixed in 10% formalin. The anterior and posterior surface of the most rostral brain section and the posterior surface of each of the remaining 6 sections were imaged. The quantification of infarct size of each brain was obtained using a computer aided-digital imaging analysis system (LOATS). The brain regions completely lacking TTC-staining were characterized as representative of infarcted tissue. The total infarct volume for each rat was calculated by numeric integration of the respective sequential brain areas.
Male Sprague-Dawley rats (260-320 g) were used. They were individually housed and allowed free access to food and water. Two days prior to the experiment, they were given restricted food if necessary to maintain the body weight Each rat received two surgeries: femoral vein cannulation for IV infusion and MCAO. During surgeries, the rat was anesthetized with 1.5% halothane delivered in oxygen via an inhalation mask. The body temperature was monitored and regulated at normothermic level using a homeothermic heating system. First, a catheter was inserted into the left femoral vein. Thirty minutes later, the rat was reanesthetized for MCAO surgery. The MCAO was achieved using the endovascular suture method described by Long et al., Stroke, Vol. 20, pp. 84-91 (1989). Specifically, the right external carotid artery (ECA) was exposed, coagulated and transected. A 3-0 monofilament nylon suture with a blunted tip and a coat of 0.05% Poly-1-Lysine was introduced into the proximal stump of the ECA via an arteriotomy. It was advanced 22 mm from the carotid bifurcation until it lodged in the proximal region of the anterior cerebral artery, thereby occluding the origin of the MCA. The rats were allowed to wake up; 2 hours later, the rats were reanesthetized for reperfusion, during which the nylon suture was retracted to the stump of the ECA allowing blood recirculation to the MCA.

[4] = system: LNCaP cells; settings: as the concentration increased; cited from earlier work

O=C(O)CCC(CP(=O)(O)C(NCc1ccccc1)c1ccccc1)C(=O)O (stereo not shown)
EC50 [1]: 1 nM

O=C(O)CCC(CP(=O)(O)CNCc1ccccc1)C(=O)O (stereo not shown)
EC50 [1]: 0.9 nM

O=C(O)CCC(CP(=O)(O)CN1C(=O)c2ccccc2C1=O)C(=O)O (stereo not shown)
EC50 [1]: 13 nM

O=C(O)CCC(CP(=O)(O)CNc1ccccc1)C(=O)O (stereo not shown)
EC50 [1]: 12 nM

O=C(O)CCC(CP(=O)(O)CNS(=O)(=O)c1ccccc1)C(=O)O (stereo not shown)
EC50 [1]: 792 nM

O=C(O)CCC(CP(=O)(O)CNc1ccc(F)cc1)C(=O)O (stereo not shown)
EC50 [1]: 3 nM

COc1ccc(NCP(=O)(O)CC(CCC(=O)O)C(=O)O)cc1 (stereo not shown)
EC50 [1]: 10 nM

Cc1ccc(NCP(=O)(O)CC(CCC(=O)O)C(=O)O)cc1 (stereo not shown)
EC50 [1]: 11 nM

CC(C)(C)c1ccc(NCP(=O)(O)CC(CCC(=O)O)C(=O)O)cc1 (stereo not shown)
EC50 [1]: 35 nM

O=C(O)CCC(CP(=O)(O)CC(CCC(=O)OCc1ccccc1)C(=O)OCc1ccccc1)C(=O)O (stereo not shown)
EC50 [1]: 0.01 nM

O=C(O)CCC(CP(=O)(O)CC(CCC(=O)O)C(=O)O)C(=O)O (stereo not shown)
EC50 [1]: 0.04 nM

CCC(CS)C(CCC(=O)O)C(=O)O (stereo not shown) [2-(1-ethyl-2-sulfanylethyl)pentanedioic acid]
EC50 [1]: 62 nM

CC(CS)C(CCC(=O)O)C(=O)O (stereo not shown) [2-(1-methyl-2-sulfanylethyl)pentanedioic acid]
EC50 [1]: 141 nM

O=C(O)CCC(CC(S)c1ccccc1)C(=O)O (stereo not shown) [2-(2-phenyl-2-sulfanylethyl)pentanedioic acid]
EC50 [1]: 29 nM

CCCCC(S)CC(CCC(=O)O)C(=O)O (stereo not shown) [2-(2-sulfanylhexyl)pentanedioic acid]
EC50 [1]: 1000 nM

CC(S)CC(CCC(=O)O)C(=O)O (stereo not shown) [2-(2-sulfanylpropyl)pentanedioic acid]
in vitro or in vivo activity [2]: exhibit in vitro or in vivo activity

CC(CS)CC(CCC(=O)O)C(=O)O (stereo not shown) [2-(3-sulfanyl-2-methylpropyl)pentanedioic acid]
EC50 [1]: 80 nM

O=C(O)CCC(CCCS)C(=O)O (stereo not shown) [2-(3-sulfanylpropyl)pentanedioic acid]
EC50 [1]: 13 nM | infarct size vs. vehicle treated rats ([3]; 30 mg/kg IV bolus + 6 mg/kg/hr IV infusion 4 hours, 120 minutes post-occlusion): significantly smaller infarct size | % Protect ([3]; dose 10 mg/kg): 21% | % Protect ([3]; dose 30 mg/kg): 52% | in vitro or in vivo activity [2]: exhibit in vitro or in vivo activity

O=C(O)CCC(CCCCS)C(=O)O (stereo not shown) [2-(4-sulfanylbutyl)pentanedioic acid]
EC50 [1]: 36 nM

O=C(O)CCC(CCSSCCC(CCC(=O)O)C(=O)O)C(=O)O (stereo not shown) [2-[2-[(3,5-dicarboxypentyl)dithio]ethyl]pentanedioic acid]
EC50 [1]: 17 nM

N[C@@H](Cn1oc(=O)[nH]c1=O)C(=O)O [quisqualic acid, reference compound]
LNCaP cell proliferation [4]: decreased significantly
